{"source": "paper PMC12406253", "about": "“Exploration of the Neuromodulatory Properties of Fyn and GSK-3β Kinases Exploiting 7‑Azaindole-Based Inhibitors” (Journal of Medicinal Chemistry, 2025)", "key": {"[1]": {"test_system": "neurospheres (NPCs from the subventricular zone)", "test": "Neurosphere growth analysis (NPC proliferation)", "assay_type": "cell-based, mice", "conditions": "0.1, 1, and 5 μM; 7 days", "procedure": "Based on that, we further investigated the neurogenic and differentiation potential of our kinase inhibitors in cell culture of neurospheres, which are floating pools of NPCs coming from the subventricular zone (SVZ) of six-month-old mice. Particularly, we first analyzed the variation, during 7 days, in number and size of neurosphere population with and without treatment.\nTo investigate the effect of compounds of interest in neurospheres’ growth rate, single spheres were plated in suspension in 96-well plates (5 × 10^3 cells/well) in the presence of compounds (0.1 μM, 1 μM, and 5 μM) in complete DMEM F-12 culture medium. One image/well was acquired every day by using the Sartorius Incucyte Live-Cell Analysis System and evaluated through the Brightfield Spheroid Analysis Software Module. Only aggregates with areas larger than 400 μm^2 were considered for statistical analysis."}, "FYNα": {"biological_target": "FYNα (Homo sapiens, UniProt P06241)", "sequence (P06241 whole entry)": "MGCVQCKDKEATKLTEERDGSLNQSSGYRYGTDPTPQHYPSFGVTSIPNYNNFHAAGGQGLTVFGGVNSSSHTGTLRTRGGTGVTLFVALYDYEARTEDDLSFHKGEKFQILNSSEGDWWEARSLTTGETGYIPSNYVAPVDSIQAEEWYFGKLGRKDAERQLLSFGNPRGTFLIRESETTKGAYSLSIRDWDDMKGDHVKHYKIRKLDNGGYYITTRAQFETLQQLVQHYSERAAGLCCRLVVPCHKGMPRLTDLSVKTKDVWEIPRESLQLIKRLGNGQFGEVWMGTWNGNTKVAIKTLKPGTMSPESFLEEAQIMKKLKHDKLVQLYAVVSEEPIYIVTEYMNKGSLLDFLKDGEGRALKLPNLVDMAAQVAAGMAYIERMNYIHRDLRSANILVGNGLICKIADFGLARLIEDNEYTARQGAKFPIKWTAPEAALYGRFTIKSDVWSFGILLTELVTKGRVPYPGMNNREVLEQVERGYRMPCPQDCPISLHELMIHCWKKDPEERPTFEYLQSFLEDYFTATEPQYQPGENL", "test": "Fyn kinetics, ATP competition (Lineweaver–Burk)", "conditions": "0.05 and 0.3 μM compound; ATP 1.5 to 24 μM"}}, "data": [{"smiles": "Br.Cc1sc(NCc2ccnc(Cl)c2)nc1-c1c[nH]c2ncccc12", "note": "[Compound 43, N-((2-Chloropyridin-4-yl)methyl)-5-methyl-4-(1H-pyrrolo[2,3-b]pyridin-3-yl)thiazol-2-amine Hydrobromide]", "values": [{"measurement": "Neurosphere number (object count per image), neurogenesis", "setting": "[1]", "result": "not effective"}, {"measurement": "Mechanism of Fyn inhibition with respect to ATP", "setting": "FYNα", "result": "competitive inhibition with respect to ATP"}]}]}
